Experimental data reported in US20230142606A1, “PESTICIDALLY ACTIVE FUSED BICYCLIC HETEROAROMATIC AMINO COMPOUNDS” (SYNGENTA CROP PROTECTION AG, priority 2020, published 2023).

How the values were obtained:
Format in all cases: in vivo
[1] = system: Diabrotica Balteata (Corn Root Worm); assay: Example B1: Diabrotica balteata (corn root worm), maize sprouts sprayed, L2 larvae; conditions: 96 h, application rate of 200 ppm, 4 days after infestation, in comparison to untreated samples, read-out: effect in at least one of the two categories (mortality or growth inhibition)
Protocol: Example B1: Diabrotica Balteata (Corn Root Worm)
Maize sprouts placed onto an agar layer in 24-well microtiter plates were treated with aqueous test solutions prepared from 10′000 ppm DMSO stock solutions by spraying. After drying, the plates were infested with L2 larvae (6 to 10 per well). The samples were assessed for mortality and growth inhibition in comparison to untreated samples 4 days after infestation.
The following compounds gave an effect of at least 80% in at least one of the two categories (mortality or growth inhibition) at an application rate of 200 ppm: […]

[2] = system: Chilo suppressalis (Striped Rice Stemborer); assay: Example B3: Chilo suppressalis (striped rice stemborer), artificial diet, L2 larvae; conditions: 144 h, application rate of 200 ppm, pipetting, 6 days after infestation, in comparison to untreated samples, read-out: control (at least one of mortality, anti-feedant effect, growth inhibition)
Protocol: Example B3: Chilo suppressalis (Striped Rice Stemborer)
24-well microtiter plates with artificial diet were treated with aqueous test solutions prepared from 10′000 ppm DMSO stock solutions by pipetting. After drying, the plates were infested with L2 larvae (6-8 per well). The samples were assessed for mortality, anti-feeding effect, and growth inhibition in comparison to untreated samples 6 days after infestation. Control of Chilo suppressalis by a test sample is given when at least one of the categories mortality, anti-feedant effect, and growth inhibition is higher than the untreated sample.

[3] = system: Plutella xylostella (Diamond Back Moth); assay: Example B4: Plutella xylostella (diamond back moth), 24-well artificial diet, eggs; conditions: 192 h, application rate of 200 ppm, pipetting, 8 days after infestation, in comparison to untreated samples, read-out: effect in at least one of the two categories (mortality or growth inhibition)
Protocol: Example B4: Plutella xylostella (Diamond Back Moth)
24-well microtiter plates with artificial diet were treated with aqueous test solutions prepared from 10′000 ppm DMSO stock solutions by pipetting. After drying, Plutella eggs were pipetted through a plastic stencil onto a gel blotting paper and the plate was closed with it. The samples were assessed for mortality and growth inhibition in comparison to untreated samples 8 days after infestation. The following compounds gave an effect of at least 80% in at least one of the two categories (mortality or growth inhibition) at an application rate of 200 ppm: […]

[4] = system: Spodoptera littoralis (Egyptian Cotton Leaf Worm); assay: Example B5: Spodoptera littoralis (Egyptian cotton leaf worm), cotton leaf discs sprayed, L1 larvae; conditions: foliar, 72 h, application rate of 200 ppm, 3 days after infestation, in comparison to untreated samples, read-out: control (at least one of mortality, anti-feedant effect, growth inhibition)
Protocol: Example B5: Spodoptera littoralis (Egyptian Cotton Leaf Worm)
Cotton leaf discs were placed onto agar in 24-well microtiter plates and sprayed with aqueous test solutions prepared from 10′000 ppm DMSO stock solutions. After drying the leaf discs were infested with five L1 larvae. The samples were assessed for mortality, anti-feeding effect, and growth inhibition in comparison to untreated samples 3 days after infestation. Control of Spodoptera littoralis by a test sample is given when at least one of the categories mortality, anti-feedant effect, and growth inhibition is higher than the untreated sample.

[5] = system: Plutella xylostella (Diamondback Moth); assay: Example B7: Plutella xylostella (diamondback moth), 96-well artificial diet, eggs; conditions: 216 h, application rate of 500 ppm, eggs (~30 per well), 9 days after infestation, read-out: control (samples assessed for mortality)
Protocol: Example B7: Plutella xylostella (Diamondback Moth)
96-well microtiter plates containing artificial diet were treated with aqueous test solutions, prepared from 10′000 ppm DMSO stock solutions, by a liquid handling robot. After drying, eggs (˜30 per well) were infested onto a netted lid which was suspended above the diet. The eggs hatch and L1 larvae move down to the diet. The samples were assessed for mortality 9 days after infestation.

C[C@@H](c1ncnn1-c1ccc(C#N)cn1)N(C)c1nnc2c(C(F)(F)F)cc(C(F)(F)F)cn12 [Compound P1, 6-[5-[(lS)-1-[[6.8-bis(trifluoromethyl)-[1,2,4]triazolo[4,3-a]pyridin-3-yl]-methyl-amino]ethyl]-1,2,4-triazol-1-yl]pyridine-3-carbonitrile]
≥ 80%: percent effect (mortality or growth inhibition) at 200 ppm [1] | percent control (mortality, anti-feedant effect or growth inhibition) at 200 ppm [2] | percent effect (mortality or growth inhibition) at 200 ppm [3]

C[C@H](Nc1nnc2c(C(F)(F)F)cc(C(F)(F)F)cn12)c1ncnn1-c1ccc(C#N)cn1 [Compound P2, 6-[5-[(1S)-1-[[6,8-bis(trifluoromethyl)-[1,2,4]triazolo[4,3-a]pyridin-3-yl]amino]ethyl]-1,2,4-triazol-1-yl]pyridine-3-carbonitrile]
≥ 80%: percent effect (mortality or growth inhibition) at 200 ppm [1] | percent control (mortality, anti-feedant effect or growth inhibition) at 200 ppm [2] | percent effect (mortality or growth inhibition) at 200 ppm [3] | percent control (mortality, anti-feedant effect or growth inhibition) at 200 ppm [4]

CC(Nc1nnc2c(C(F)(F)F)cc(C(F)(F)F)cn12)c1ncnn1-c1ccc(C#N)cn1 (stereo not shown) [Compound P3, 6-[5-[1-[[6,8-bis(trifluoromethyl)-[1,2,4]triazolo[4,3-a]pyridin-3-yl]amino]ethyl]-1,2,4-triazol-1-yl]pyridine-3-carbonitrile]
≥ 80%: percent effect (mortality or growth inhibition) at 200 ppm [1] | percent control (mortality, anti-feedant effect or growth inhibition) at 200 ppm [2] | percent effect (mortality or growth inhibition) at 200 ppm [3] | percent control (mortality, anti-feedant effect or growth inhibition) at 200 ppm [4]

CC(Nc1nnc2c(C(F)(F)F)cc(C(F)(F)F)cn12)c1ncnn1-c1ccc(Br)cn1 (stereo not shown) [Compound P4, N-[1-[2-(5-bromo-2-pyridyl)-1,2,4-triazol-3-yl]ethyl]-6,8-bis(trifluoromethyl)-[1,2,4]triazolo[4,3-a]pyridin-3-amine]
≥ 80%: percent effect (mortality or growth inhibition) at 200 ppm [1] | percent control (mortality, anti-feedant effect or growth inhibition) at 200 ppm [2] | percent effect (mortality or growth inhibition) at 200 ppm [3] | percent control (mortality, anti-feedant effect or growth inhibition) at 200 ppm [4]

CC(Nc1nnc2c(C(F)(F)F)cc(Br)cn12)c1ncnn1-c1ccc(Br)cn1 (stereo not shown) [Compound P5, 6-bromo-N-[1-[2-(5-bromo-2-pyridyl)-1,2,4-triazol-3-yl]ethyl]-8-(trifluoromethyl)-[1,2,4]triazolo[4,3-a]pyridin-3-amine]
≥ 80%: percent effect (mortality or growth inhibition) at 200 ppm [1] | percent control (mortality, anti-feedant effect or growth inhibition) at 200 ppm [2] | percent effect (mortality or growth inhibition) at 200 ppm [3]

CC(Nc1nnc2c(C(F)(F)F)cc(Br)cn12)c1ncnn1-c1ccc(C#N)cn1 (stereo not shown) [Compound P6, 6-[5-[1-[[6-bromo-8-(trifluoromethyl)-[1,2,4]triazolo[4,3-a]pyridin-3-yl]amino]ethyl]-1,2,4-triazol-1-yl]pyridine-3-carbonitrile]
≥ 80%: percent control (mortality, anti-feedant effect or growth inhibition) at 200 ppm [2] | percent effect (mortality or growth inhibition) at 200 ppm [3] | percent control (mortality, anti-feedant effect or growth inhibition) at 200 ppm [4]

CC(Nc1nnc2c(C(F)(F)F)cc(Br)cn12)c1ncnn1-c1ncccn1 (stereo not shown) [Compound P7, 6-bromo-N-[1-(2-pyrimidin-2-yl-1,2,4-triazol-3-yl)ethyl]-8-(trifluoromethyl)-[1,2,4]triazolo[4,3-a]pyndin-3-amine]
≥ 80%: percent control (mortality, anti-feedant effect or growth inhibition) at 200 ppm [2]

CC(Nc1nnc2c(Cl)cc(C(F)(F)F)cn12)c1ncnn1-c1ccc(C#N)cn1 (stereo not shown) [Compound P8, 6-[5-[1-[[8-chloro-6-(trifluoromethyl)-[1,2,4]triazolo[4,3-a]pyridin-3-yl]amino]ethyl]-1,2,4-triazol-1-yl]pyridine-3-carbonitrile]
≥ 80%: percent effect (mortality or growth inhibition) at 200 ppm [1] | percent control (mortality, anti-feedant effect or growth inhibition) at 200 ppm [2] | percent effect (mortality or growth inhibition) at 200 ppm [3] | percent control (mortality, anti-feedant effect or growth inhibition) at 200 ppm [4]

CC(Nc1nnc2c(Cl)cc(C(F)(F)F)cn12)c1ncnn1-c1ncccn1 (stereo not shown) [Compound P9, 8-chloro-N-[1-(2-pyrimidin-2-yl-1,2,4-triazol-3-yl)ethyl]-6-(trifluoromethyl)-[1,2,4]triazolo[4,3-a]pyridin-3-amine]
≥ 80%: percent control (mortality, anti-feedant effect or growth inhibition) at 200 ppm [2] | mortality at 500 ppm [5]
